Laboratory results from US20060069132A1, “Azolecarboxamide herbicides” (priority 2004, published 2006).
Like-named read-outs stand apart in the source and are kept apart here.

Columns and labels:
giant foxtail = assay: Test A pre-/postemergence herbicide test; assay type: in vivo, Setaria faberi; settings: for pest or weed control at 500 g/ha / pest or weed control at 2000 g/ha: Setaria faberi, 240 h
Outline: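 Plants are held in greenhouse about ten days after treatment, then compared with untreated controls and scored 0 (no effect) to 100 (complete control). Preemergence dosing is a directed soil spray on sown sandy loam; postemergence dosing is spray to runoff at 2–10 cm height.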

rice = assay: Test B pre-/postemergence herbicide test; assay type: in vivo, Oryza sativa
Outline: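 Visual rating, 0 (no effect) to 100 (complete control), versus untreated controls after 13–15 d in greenhouse. Pre- and postemergence applications (postemergence plants 2–18 cm, 1–4 leaves); flooded paddy arm at 2-leaf stage. Compounds in non-phytotoxic solvent plus surfactant.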

large crabgrass = assay: Test C pre-/postemergence herbicide test; assay type: in vivo, Digitaria sanguinalis
Outline: (§1)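 Greenhouse-grown plants were evaluated visually 12 to 14 days after treatment, with 100 meaning complete control and 0 no effect. Application was preemergence, or postemergence at 2 to 18 cm.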

goosegrass = assay: Test C pre-/postemergence herbicide test; assay type: in vivo, Eleusine indica
Outline: as §1

kochia = assay: Test C pre-/postemergence herbicide test; assay type: in vivo, Kochia scoparia
Outline: as §1

pigweed = assay: Test C pre-/postemergence herbicide test; assay type: in vivo, Amaranthus retroflexus
Outline: as §1

common ragweed = assay: Test C pre-/postemergence herbicide test; assay type: in vivo, Ambrosia elatior; design: key to Plant response rating, Ragweed: 0 = no effect, 100 = complete control
Outline: as §1

velvetleaf = assay: Test C pre-/postemergence herbicide test; assay type: in vivo, Abutilon theophrasti
Outline: as §1

barnyardgrass = assay: Test C flooded paddy test; assay type: in vivo, Echinochloa crus-galli
Outline: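 Visual rating, 0 (no effect) to 100 (complete control), vs. controls at 12–14 d in greenhouse. Postemergence: 1–4-leaf plants, 2–18 cm. Paddy: flooded, barnyardgrass at 2-leaf stage.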

[1] = Preemergence, 500 g ai/ha, scale 0 to 100, 0 no effect, 100 complete control
[2] = 62 g ai/ha, preemergence, scale 0 to 100
[3] = 125 g ai/ha, scale 0 (no effect) to 100 (complete control), visual, 12 to 14 days, preemergence
[4] = 250 g ai/ha, scale 0-100, preemergence
[5] = 500 g ai/ha, scale 0 to 100 (0 no effect, 100 complete control), visual, 12 to 14 days, preemergence

Which pest or weed control at 500 g/ha (giant foxtail; post-emergence, Postemergence, 500 g ai/ha, 0 to 100 scale, 0 no effect, 100 complete control, read-out: Plant response rating, Foxtail, Giant) does the source give for `CCNC(=O)c1ccc(F)c(NC(=O)c2cc(C(C)(C)C)nn2CC)c1` [Compound 2, 3-(1,1-dimethylethyl)-1-ethyl-N-[5-[(ethylamino)carbonyl]-2-fluorophenyl]-1H-pyrazole-5-carboxamide] here?
Its pest or weed control at 500 g/ha is 95%.

What about the pest or weed control at 2000 g/ha (giant foxtail; post-emergence, Postemergence, 2000 g ai/ha, 0 to 100 scale, 0 no effect, 100 complete control, read-out: Plant response rating, Foxtail, Giant) of the same compound?
The pest or weed control at 2000 g/ha was 100%.

And the pest or weed control at 500 g/ha (giant foxtail; pre-emergence, Preemergence, 500 g ai/ha, visual rating, 0 to 100 scale (0 no effect, 100 complete control), read-out: Foxtail, Giant plant response rating)?
Its pest or weed control at 500 g/ha is 100%.

And the pest or weed control at 2000 g/ha (giant foxtail; pre-emergence, Preemergence, 2000 g ai/ha, 0 to 100 scale, 0 no effect, 100 complete control, read-out: Foxtail, Giant plant response rating)?
Its pest or weed control at 2000 g/ha is 100%.

What about the “Rice plant response rating” value (rice; Preemergence, 500 g ai/ha, scale 0 to 100) of the same compound?
Its value is 90.

What about the “Plant response rating (0 = no effect, 100 = complete control), Crabgrass, Large” value (large crabgrass; 62 g ai/ha, preemergence) of the same compound?
Its value is 95.

What about the pest or weed control at 125 g/ha (large crabgrass; Digitaria sanguinalis, pre-emergence, 312 h, 125 g ai/ha, scale 0-100, read-out: Plant response rating, Crabgrass, Large) of the same compound?
The pest or weed control at 125 g/ha was 95%.

And the pest or weed control at 250 g/ha (large crabgrass; Digitaria sanguinalis, pre-emergence, 312 h, 250 g ai/ha, scale 0 to 100 (0 no effect, 100 complete control), visual, 12 to 14 days, read-out: Plant response rating, Crabgrass, Large)?
Its pest or weed control at 250 g/ha is 100%.

And the “Crabgrass, Large plant response rating” value (large crabgrass; [1])?
The value was 100.

What about the “Plant response rating (0 = no effect, 100 = complete control), Goosegrass” value (goosegrass; 62 g ai/ha, preemergence) of the same compound?
The value was 90.

And the pest or weed control at 125 g/ha (goosegrass; Eleusine indica, pre-emergence, 312 h, 125 g ai/ha, scale 0-100, read-out: Plant response rating, Goosegrass)?
The pest or weed control at 125 g/ha was 95%.

What about the pest or weed control at 250 g/ha (goosegrass; Eleusine indica, pre-emergence, 312 h, 250 g ai/ha, scale 0 to 100 (0 no effect, 100 complete control), visual, 12 to 14 days, read-out: Plant response rating, Goosegrass) of the same compound?
Its pest or weed control at 250 g/ha is 95%.

And the “Goosegrass plant response rating” value (goosegrass; [1])?
Its value is 100.

And the “Plant response rating (0 = no effect, 100 = complete control), Kochia” value (kochia; 62 g ai/ha, preemergence)?
The value was 100.

And the pest or weed control at 125 g/ha (kochia; Bassia scoparia, pre-emergence, 125 g ai/ha, scale 0-100, read-out: Plant response rating, Kochia)?
The pest or weed control at 125 g/ha was 100%.

What about the pest or weed control at 250 g/ha (kochia; Bassia scoparia, pre-emergence, 250 g ai/ha, scale 0 to 100 (0 no effect, 100 complete control), visual, 12 to 14 days, read-out: Plant response rating, Kochia) of the same compound?
Its pest or weed control at 250 g/ha is 100%.

And the “Kochia plant response rating” value (kochia; [1])?
Its value is 100.

And the “Plant response rating (0 = no effect, 100 = complete control), Pigweed” value (pigweed; 62 g ai/ha, preemergence)?
Its value is 95.

And the pest or weed control at 250 g/ha (pigweed; Amaranthus retroflexus, pre-emergence, 250 g ai/ha, scale 0 to 100 (0 no effect, 100 complete control), visual, 12 to 14 days, read-out: Plant response rating, Pigweed)?
Its pest or weed control at 250 g/ha is 95%.

And the “Pigweed plant response rating” value (pigweed; [1])?
The value was 100.

And the “Plant response rating (0 = no effect, 100 = complete control), Ragweed” value (common ragweed; 62 g ai/ha, preemergence)?
Its value is 80.

What about the pest or weed control at 250 g/ha (common ragweed; Ambrosia artemisiifolia, pre-emergence, 250 g ai/ha, scale 0 to 100 (0 no effect, 100 complete control), visual, 12 to 14 days, read-out: Plant response rating, Ragweed) of the same compound?
The pest or weed control at 250 g/ha was 100%.

What about the “Ragweed plant response rating” value (common ragweed; [1]) of the same compound?
The value was 100.

What about the “Plant response rating (0 = no effect, 100 = complete control), Velvetleaf” value (velvetleaf; 62 g ai/ha, preemergence) of the same compound?
Its value is 60.

And the pest or weed control at 250 g/ha (velvetleaf; Abutilon theophrasti, pre-emergence, 250 g ai/ha, scale 0 to 100 (0 no effect, 100 complete control), visual, 12 to 14 days, read-out: Plant response rating, Velvetleaf)?
The pest or weed control at 250 g/ha was 100%.

And the “Velvetleaf plant response rating” value (velvetleaf; [1])?
Its value is 100.

And the pest or weed control at 62 g/ha (barnyardgrass; Echinochloa crus-galli, 62 g ai/ha, scale 0 to 100 (0 no effect, 100 complete control), read-out: Barnyardgrass plant response rating)?
Its pest or weed control at 62 g/ha is 15%.

What about the pest or weed control at 125 g/ha (barnyardgrass; Echinochloa crus-galli, 125 g ai/ha, scale of 0 to 100, 0 is no effect, 100 is complete control, read-out: Barnyardgrass plant response rating) of the same compound?
The pest or weed control at 125 g/ha was 75%.

And the pest or weed control at 250 g/ha (barnyardgrass; Echinochloa crus-galli, 250 g ai/ha, visual rating after 12 to 14 days, scale 0 to 100 (0 no effect, 100 complete control), read-out: Plant response rating, Barnyardgrass)?
The pest or weed control at 250 g/ha was 75%.

And the pest or weed control at 500 g/ha (barnyardgrass; Echinochloa crus-galli, 500 g ai/ha, visual rating after 12 to 14 days, scale 0 to 100 (0 no effect, 100 complete control), read-out: Plant response rating, Barnyardgrass)?
The pest or weed control at 500 g/ha was 90%.

Which “Foxtail, Giant plant response rating” value (giant foxtail; Postemergence, 500 g ai/ha, 0 to 100 scale, 0 no effect, 100 complete control) does the source give for `CCNC(=O)c1cccc(NC(=O)c2sc(C(C)(C)C)nc2CC)c1` [Compound 210] here?
The value was 40.

And the “Plant response rating, Foxtail, Giant” value (giant foxtail; Postemergence, 2000 g ai/ha, 0 to 100 scale, 0 no effect, 100 complete control)?
The value was 75.

What about the “Foxtail, Giant plant response rating” value (giant foxtail; Preemergence, 2000 g ai/ha, visual rating, 0 to 100 scale (0 no effect, 100 complete control)) of the same compound?
The value was 100.

And the “Foxtail, Giant plant response rating” value (giant foxtail; preemergence, 500 g ai/ha, visual injury, 0 to 100 scale (0 no effect, 100 complete control))?
The value was 100.

And the “Rice plant response rating (0 to 100 scale)” value (rice; 125 g ai/ha, 0 = no effect, 100 = complete control, preemergence)?
The value was 60.

What about the “Plant response rating, Rice” value (rice; 500 g ai/ha, visual rating 0-100, 0 no effect, 100 complete control, preemergence) of the same compound?
The value was 80.

And the “Plant response rating, Crabgrass, Large” value (large crabgrass; [2])?
The value was 80.

What about the “Plant response rating, Crabgrass, Large” value (large crabgrass; [3]) of the same compound?
Its value is 80.

What about the “Plant response rating, Crabgrass, Large” value (large crabgrass; [4]) of the same compound?
The value was 95.

What about the “Plant response rating, Crabgrass, Large” value (large crabgrass; [5]) of the same compound?
The value was 100.

What about the “Plant response rating, Goosegrass” value (goosegrass; [2]) of the same compound?
Its value is 50.

What about the “Plant response rating, Goosegrass” value (goosegrass; [3]) of the same compound?
The value was 80.

And the “Plant response rating, Goosegrass” value (goosegrass; [4])?
The value was 95.

And the “Plant response rating, Goosegrass” value (goosegrass; [5])?
The value was 95.

And the “Plant response rating, Kochia” value (kochia; [2])?
The value was 0.

What about the “Plant response rating, Kochia” value (kochia; [3]) of the same compound?
Its value is 90.

And the “Plant response rating, Kochia” value (kochia; [4])?
The value was 90.

What about the “Plant response rating, Kochia” value (kochia; [5]) of the same compound?
Its value is 95.

What about the “Plant response rating, Pigweed” value (pigweed; [2]) of the same compound?
The value was 100.

What about the “Plant response rating, Pigweed” value (pigweed; [3]) of the same compound?
The value was 100.

And the “Plant response rating, Pigweed” value (pigweed; [4])?
The value was 100.

What about the “Plant response rating, Pigweed” value (pigweed; [5]) of the same compound?
Its value is 100.

And the “Plant response rating, Ragweed” value (common ragweed; [2])?
Its value is 0.

And the “Plant response rating, Ragweed” value (common ragweed; [3])?
Its value is 0.

What about the “Plant response rating, Ragweed” value (common ragweed; [4]) of the same compound?
Its value is 90.

What about the “Plant response rating, Ragweed” value (common ragweed; [5]) of the same compound?
The value was 90.

And the “Plant response rating, Velvetleaf” value (velvetleaf; [2])?
The value was 0.

What about the “Plant response rating, Velvetleaf” value (velvetleaf; [3]) of the same compound?
The value was 0.

What about the “Plant response rating, Velvetleaf” value (velvetleaf; [4]) of the same compound?
The value was 60.

And the “Plant response rating, Velvetleaf” value (velvetleaf; [5])?
Its value is 80.

What about the “Barnyardgrass plant response rating” value (barnyardgrass; 62 g ai/ha, scale 0 to 100 (0 no effect, 100 complete control)) of the same compound?
Its value is 50.

What about the “Barnyardgrass plant response rating” value (barnyardgrass; 125 g ai/ha, scale 0 to 100 (0 no effect, 100 complete control)) of the same compound?
The value was 70.

What about the “Barnyardgrass plant response rating” value (barnyardgrass; 250 g ai/ha, scale of 0 to 100, 0 is no effect, 100 is complete control) of the same compound?
The value was 85.

What about the “Plant response rating, Barnyardgrass” value (barnyardgrass; 500 g ai/ha, visual rating after 12 to 14 days, scale 0 to 100 (0 no effect, 100 complete control)) of the same compound?
Its value is 85.
